Laboratory results reported in patent US20230373930A1, “AMINOIMIDAZOLE FPR2 AGONISTS” (BRISTOL-MYERS SQUIBB COMPANY, priority 2020, published 2023).

Legend:
[1] = target: T1, human FPR2 (Homo sapiens, UniProt P25090); experiment: FPR2 cyclic adenosine monophosphate (cAMP) assay; type: cell-based; conditions: CHO cells overexpressing human FPR2; forskolin 5 μM; inhibition of cAMP production; HTRF; read-out: hFPR2 cAMP2 EC50
T1 sequence (P25090 1-351): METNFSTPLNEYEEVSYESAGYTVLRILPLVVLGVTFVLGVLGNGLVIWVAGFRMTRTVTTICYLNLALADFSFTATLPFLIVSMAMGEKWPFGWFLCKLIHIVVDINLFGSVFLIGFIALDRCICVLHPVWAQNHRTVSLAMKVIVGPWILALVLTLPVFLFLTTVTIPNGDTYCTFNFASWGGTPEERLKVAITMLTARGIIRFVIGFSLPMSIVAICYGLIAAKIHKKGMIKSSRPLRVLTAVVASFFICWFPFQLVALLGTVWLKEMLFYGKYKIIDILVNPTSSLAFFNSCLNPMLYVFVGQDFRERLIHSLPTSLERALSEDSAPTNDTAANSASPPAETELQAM
Outline: (§1)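 CHO cells overexpressing human FPR1 (4,000/well, 10 μM forskolin) or FPR2 (2,000/well, 5 μM forskolin) were incubated with 200 μM IBMX and compound (0.020 nM–100 μM, 1% DMSO) for 30 min at room temperature. Intracellular cAMP was measured by HTRF against a cAMP standard curve, and inhibition of cAMP production was fitted to a 4-parameter logistic.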

[2] = target: T2, human FPR1 (Homo sapiens, UniProt P21462); experiment: FPR1 cyclic adenosine monophosphate (cAMP) assay; type: cell-based; conditions: CHO cells overexpressing human FPR1; forskolin 10 μM; inhibition of cAMP production; HTRF; read-out: hFPR1 cAMP2 EC50
T2 sequence (P21462 1-350): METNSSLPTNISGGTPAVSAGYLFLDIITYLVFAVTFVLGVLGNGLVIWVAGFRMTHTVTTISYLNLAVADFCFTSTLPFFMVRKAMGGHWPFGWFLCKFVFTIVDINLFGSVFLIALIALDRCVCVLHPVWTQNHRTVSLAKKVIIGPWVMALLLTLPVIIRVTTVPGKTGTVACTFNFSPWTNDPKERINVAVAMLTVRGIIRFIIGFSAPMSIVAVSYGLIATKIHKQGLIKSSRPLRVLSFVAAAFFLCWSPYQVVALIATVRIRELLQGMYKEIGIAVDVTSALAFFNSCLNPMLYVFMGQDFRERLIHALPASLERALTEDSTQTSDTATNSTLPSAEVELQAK
Outline: as §1

Compound	EC50 [1]	EC50 [2]
CCOC(=O)Cc1cn(-c2c(F)cc(OC)cc2F)c(NC(=O)c2ccc(OC(F)F)cc2)n1 [Example 72, ethyl 2-[1-(2,6-difluoro-4-methoxyphenyl)-2-[4-(difluoromethoxy)benzamido]-1H-imidazol-4-yl]acetate]	22 nM	470 nM
COc1cc(F)c(-n2cc(Cc3nnc(C)o3)nc2NC(=O)c2ccc(OC(F)F)cc2)c(F)c1 [Example 73, N-(1-(2,6-Difluoro-4-methoxyphenyl)-4-((5-methyl-1,3,4-oxadiazol-2-yl)methyl)-1H-imidazol-2-yl)-4-(difluoromethoxy)benzamide]	23 nM	300 nM
COc1cc(F)c(-n2cc(C3CC4(CNC4)C3)nc2NC(=O)c2ccc(OC(F)F)cc2)c(F)c1 [Example 75, N-(1-(2,6-Difluoro-4-methoxyphenyl)-4-(2-azaspiro[3.3]heptan-6-yl)-1H-imidazol-2-yl)-4-(difluoromethoxy)benzamide]	23 nM	> 10000 nM
COc1cc(F)c(-n2cc(Cc3nc4ncc(F)cc4[nH]3)nc2NC(=O)c2ccc(OC(F)F)cc2)c(F)c1 [Example 77, N-(1-(2,6-Difluoro-4-methoxyphenyl)-4-((6-fluoro-1H-imidazo[4,5-b]pyridin-2-yl)methyl)-1H-imidazol-2-yl)-4-(difluoromethoxy)benzamide]	13 nM	120 nM
COc1cc(F)c(-n2cc(Cc3ccccn3)nc2NC(=O)c2ccc(OC(F)F)cc2)c(F)c1 [Example 78, N-[1-(2,6-difluoro-4-methoxyphenyl)-4-[(pyridin-2-yl)methyl]-1H-imidazol-2-yl]-4-(difluoromethoxy)benzamide]	56 nM	870 nM
COc1cc(F)c(-n2cc(C3CNC3)nc2NC(=O)c2ccc(OC(F)F)cc2)c(F)c1 [Example 79, N-[4-(azetidin-3-yl)-1-(2,6-difluoro-4-methoxyphenyl)-1H-imidazol-2-yl]-4-(difluoromethoxy)benzamide]	81 nM	4200 nM
COc1cc(F)c(-n2cc(-c3ccn[nH]3)nc2NC(=O)c2ccc(OC(F)F)cc2)c(F)c1 [Example 80, N-[1-(2,6-difluoro-4-methoxyphenyl)-4-(1H-pyrazol-5-yl)-1H-imidazol-2-yl]-4-(difluoromethoxy)benzamide]	59 nM	500 nM

Stronger by EC50 [1], values ahead:

EC50 [1]	EC50 [2]	Compound
10 nM	240 nM	COc1cc(F)c(-n2cc(C3CCC(O)CC3)nc2NC(=O)c2ccc(OC(F)F)cc2)c(F)c1 (stereo not drawn) [Example 76, N-(1-(2,6-Difluoro-4-methoxyphenyl)-4-(4-hydroxycyclohexyl)-1H-imidazol-2-yl)-4-(difluoromethoxy)benzamide]
10 nM	85 nM	COc1cc(F)c(-n2cc(C3CC(NCC(F)(F)F)C3)nc2NC(=O)c2ccc(OC(F)F)cc2)c(F)c1 (stereo not drawn) [Example 82, N-(1-(2,6-Difluoro-4-methoxyphenyl)-4-(3-((2,2,2-trifluoroethyl)amino)cyclobutyl)-1H-imidazol-2-yl)-4-(difluoromethoxy)benzamide]
7 nM	250 nM	COc1cc(F)c(-n2cc(C3CC(O)C3)nc2NC(=O)c2ccc(OC(F)F)cc2)c(F)c1 (stereo not drawn) [Example 74, N-(1-(2,6-Difluoro-4-methoxyphenyl)-4-(3-hydroxycyclobutyl)-1H-imidazol-2-yl)-4-(difluoromethoxy)benzamide]
5 nM	400 nM	COc1cc(F)c(-n2cc(C3CC(NS(C)(=O)=O)C3)nc2NC(=O)c2ccc(OC(F)F)cc2)c(F)c1 (stereo not drawn) [Example 83, N-[1-(2,6-difluoro-4-methoxyphenyl)-4-(3-methanesulfonamidocyclobutyl)-1H-imidazol-2-yl]-4-(difluoromethoxy)benzamide]
4 nM	5400 nM	COc1cc(F)c(-n2cc(C3CC(N)C3)nc2NC(=O)c2ccc(OC(F)F)cc2)c(F)c1 (stereo not drawn) [Example 81, N-[4-(3-aminocyclobutyl)-1-(2,6-difluoro-4-methoxyphenyl)-1H-imidazol-2-yl]-4-(difluoromethoxy)benzamide]
